Values of other authors as cited in article PMC10485003, “Antibiotic hyper-resistance in a class I aminoacyl-tRNA synthetase with altered active site signature motif” (Nature Communications, 2023).

Test system: IleRS
Parameters: method as in PMID 18234501
Conditions: monic acid A alone, without the nonanoic acid part; cited from earlier work

For CC(=CC(=O)O)CC1OCC(CC2OC2C(C)C(C)O)C(O)C1O (stereo not shown) [monic acid A], the inhibitor activity is given as “cannot act as an inhibitor”.
